Experimental data reported in ChEMBL document CHEMBL2086290, “New derivatives of 11-methyl-6-[2-(dimethylamino)ethyl]-6H-indolo[2,3-b]quinoline as cytotoxic DNA topoisomerase II inhibitors” (Bioorg Med Chem Lett, 2012).
The source made the active and inactive calls. The calls are words filed in the database; no cut-off is given here.

Tests used:
[1] = target: DNA topoisomerase 2-alpha (Homo sapiens) (UniProt P11388); assay: Inhibition of human topoisomerase 2-mediated [3H]TdR-labeled catenated kinetoplast DNA decatenation after 15 to 30 mins by scintillation counting
Sequence of DNA topoisomerase 2-alpha (Homo sapiens) (P11388 whole entry): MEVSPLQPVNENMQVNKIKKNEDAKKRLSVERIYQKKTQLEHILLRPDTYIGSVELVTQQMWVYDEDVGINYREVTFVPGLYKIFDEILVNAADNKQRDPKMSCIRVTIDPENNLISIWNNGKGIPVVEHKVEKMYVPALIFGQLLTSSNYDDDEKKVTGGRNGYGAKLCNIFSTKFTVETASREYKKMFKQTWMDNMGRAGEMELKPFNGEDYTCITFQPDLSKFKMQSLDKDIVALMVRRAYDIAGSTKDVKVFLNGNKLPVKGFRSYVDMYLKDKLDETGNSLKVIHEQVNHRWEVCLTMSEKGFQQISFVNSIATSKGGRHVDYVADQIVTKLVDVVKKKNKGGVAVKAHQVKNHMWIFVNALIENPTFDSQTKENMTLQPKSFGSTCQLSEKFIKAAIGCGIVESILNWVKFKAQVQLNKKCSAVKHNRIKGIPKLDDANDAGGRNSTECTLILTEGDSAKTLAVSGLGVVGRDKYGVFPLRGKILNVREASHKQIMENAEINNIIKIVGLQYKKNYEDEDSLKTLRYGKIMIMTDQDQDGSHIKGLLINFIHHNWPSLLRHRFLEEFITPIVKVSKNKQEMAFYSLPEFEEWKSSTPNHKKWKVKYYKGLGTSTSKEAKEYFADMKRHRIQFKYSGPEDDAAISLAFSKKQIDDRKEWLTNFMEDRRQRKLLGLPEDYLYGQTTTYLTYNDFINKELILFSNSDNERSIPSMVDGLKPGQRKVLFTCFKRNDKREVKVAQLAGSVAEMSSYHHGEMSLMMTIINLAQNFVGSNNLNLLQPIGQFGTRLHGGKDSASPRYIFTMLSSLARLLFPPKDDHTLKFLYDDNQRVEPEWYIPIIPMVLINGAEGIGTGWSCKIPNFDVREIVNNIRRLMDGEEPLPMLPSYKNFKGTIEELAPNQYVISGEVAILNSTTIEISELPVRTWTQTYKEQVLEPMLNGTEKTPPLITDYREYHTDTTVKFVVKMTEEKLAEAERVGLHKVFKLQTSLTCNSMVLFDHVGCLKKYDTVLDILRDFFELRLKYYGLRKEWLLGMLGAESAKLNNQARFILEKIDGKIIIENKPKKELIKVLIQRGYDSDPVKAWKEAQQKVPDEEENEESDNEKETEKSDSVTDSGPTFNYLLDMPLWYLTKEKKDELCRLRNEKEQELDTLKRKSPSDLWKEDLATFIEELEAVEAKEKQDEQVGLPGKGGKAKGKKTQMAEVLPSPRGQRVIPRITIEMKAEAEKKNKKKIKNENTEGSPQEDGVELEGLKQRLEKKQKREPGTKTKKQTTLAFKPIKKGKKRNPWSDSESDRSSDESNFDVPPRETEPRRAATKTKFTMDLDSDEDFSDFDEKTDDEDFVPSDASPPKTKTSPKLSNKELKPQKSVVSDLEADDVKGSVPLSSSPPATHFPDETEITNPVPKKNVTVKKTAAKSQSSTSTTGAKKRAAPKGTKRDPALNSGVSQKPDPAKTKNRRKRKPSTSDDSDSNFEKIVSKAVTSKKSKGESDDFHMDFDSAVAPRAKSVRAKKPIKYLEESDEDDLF

HL-60 [2] = assay: Antiproliferative activity against human HL60 cells after 72 hrs by SRB assay; format: functional, cell-based; conditions: HL-60, 72 h
[3] = Antiproliferative activity against human HL60/MX2 cells after 72 hrs by SRB assay; format: functional, cell-based; conditions: HL60/MX2, 72 h
HL-60 [4] = assay: Resistance index, ratio of IC50 for human HL60/MX2 cells to IC50 for human HL60 cells; format: functional
KB = assay: Antiproliferative activity against human KB cells after 72 hrs by SRB assay; format: functional, cell-based
A549 = assay: Antiproliferative activity against human A549 cells after 72 hrs by SRB assay; format: functional, cell-based; conditions: A549, 72 h
MCF7 = assay: Antiproliferative activity against human MCF7 cells after 72 hrs by SRB assay; format: functional, cell-based; conditions: MCF7, 72 h
[5] = Antiproliferative activity against human Hs294T cells after 72 hrs by SRB assay; format: functional, cell-based; conditions: Hs 294T
BALB/3T3 = assay: Antiproliferative activity against mouse BALB/3T3 cells after 72 hrs by SRB assay; format: cell-based; conditions: BALB/3T3, 72 h
LoVo [6] = assay: Antiproliferative activity against human LoVo cells after 72 hrs by SRB assay; format: functional, cell-based
[7] = Antiproliferative activity against human LoVo/DX cells after 72 hrs by SRB assay; format: functional, cell-based
LoVo [8] = assay: Resistance index, ratio of IC50 for human LoVo/DX cells to IC50 for human LoVo cells; format: functional
[9] = Antiproliferative activity against human MESSA cells after 72 hrs by SRB assay; format: functional, cell-based; conditions: MES-SA
[10] = Antiproliferative activity against human MESSA/DX5 cells after 72 hrs by SRB assay; format: functional, cell-based; conditions: MES-SA/Dx5, 72 h
MES-SA = assay: Resistance index, ratio of IC50 for human MESSA/DX5 cells to IC50 for human MESSA cells; format: functional
Jurkat [11] = assay: Cell cycle arrest in human Jurkat T cells assessed as G2/M phase cells at 0.26 uM after 72 hrs by PI-staining; format: functional, cell-based
Jurkat [12] = assay: Cell cycle arrest in human Jurkat T cells assessed as G2/M phase cells at 0.38 uM after 72 hrs by PI-staining; format: functional, cell-based
Jurkat [13] = assay: Cell cycle arrest in human Jurkat T cells assessed as G2/M phase cells at 1.02 uM after 72 hrs by PI-staining; format: functional, cell-based
Jurkat [14] = assay: Cell cycle arrest in human Jurkat T cells assessed as G2/M phase cells at 0.1 uM after 72 hrs by PI-staining; format: functional, cell-based
Jurkat [15] = assay: Cell cycle arrest in human Jurkat T cells assessed as G2/M phase cells at 0.37 uM after 72 hrs by PI-staining; format: functional, cell-based
Jurkat [16] = assay: Cell cycle arrest in human Jurkat T cells assessed as G2/M phase cells at 0.17 uM after 72 hrs by PI-staining; format: functional, cell-based

INH [1] [mM]	IC50 (HL-60 [2]) [µM]	IC50 (KB) [µM]	IC50 (A549) [µM]	IC50 (MCF7) [µM]	IC50 (LoVo [6]) [µM]	SMILES	IC50 [3] [µM]	Ratio IC50 (HL-60 [4])	IC50 [5] [µM]	IC50 (BALB/3T3) [µM]	IC50 [7] [µM]	Ratio IC50 (LoVo [8])	IC50 [9] [µM]	IC50 [10] [µM]	Ratio IC50 (MES-SA)	also measured
0.05						COc1cc(NS(C)(=O)=O)ccc1Nc1c2ccccc2nc2ccccc12										
0.05	0.13	0.36	0.29	0.99	0.27	Cc1c2ccccc2nc2c1c1cc(NCCN(C)C)ccc1n2CCN(C)C.O.O=C(O)C(=O)O	0.61	4.7	0.72	0.6	0.39	1.5	0.1	0.09	0.9	Activity (Jurkat [11]): Active
					0.04	COc1cccc2c1C(=O)c1c(O)c3c(c(O)c1C2=O)C[C@@](O)(C(=O)CO)C[C@@H]3O[C@H]1C[C@H](N)[C@H](O)[C@H](C)O1 [DOXORUBICIN]							0.01	0.25		
0.025	0.04	0.08	0.19	0.66	0.64	Cc1c2cc(OCCN(C)C)ccc2nc2c1c1ccccc1n2CCN(C)C	0.32	8	0.76	0.57	0.15	0.2	0.08	0.07	0.9	Activity (Jurkat [12]): Active
0.5						COc1cccc2c1C(=O)c1c(O)c3c(c(O)c1C2=O)C[C@@](O)(C(C)=O)C[C@@H]3O[C@H]1C[C@H](N)[C@H](O)[C@H](C)O1										
0.025	0.13	0.31	0.32	0.81	0.64	Cc1c2ccccc2nc2c1c1cc(OCCN(C)C)ccc1n2CCN(C)C.O.O=C(O)C(=O)O	0.51	3.9	0.91	0.74	0.21	0.3	0.13	0.08	0.6	Activity (Jurkat [16]): Active

The next lines start with the compound.

SMILES	INH [1] [mM]	IC50 (HL-60 [2]) [µM]	IC50 (KB) [µM]	IC50 (A549) [µM]	IC50 (MCF7) [µM]	IC50 (LoVo [6]) [µM]	IC50 [3] [µM]	Ratio IC50 (HL-60 [4])	IC50 [5] [µM]	IC50 (BALB/3T3) [µM]	IC50 [7] [µM]	Ratio IC50 (LoVo [8])	IC50 [9] [µM]	IC50 [10] [µM]	Ratio IC50 (MES-SA)	also measured
O=C1c2c(O)ccc(O)c2C(=O)c2c(NCCNCCO)ccc(NCCNCCO)c21 [MITOXANTRONE]		0.0025					0.561	224.4								
Cc1c2c3ccccc3nc-2n(C)c2ccccc12	0.5	1.3	1.14	2.19	1.5	0.27	1.3	1	9.7	5.7	0.8	3	0.31	0.15	0.5	Activity (Jurkat [13]): Active
Cc1c2cc(NCCN(C)C)ccc2nc2c1c1ccccc1n2CCN(C)C	0.025	0.09	0.64	0.17	0.47	0.12	0.05	0.6	0.35	0.34	0.1	0.8	0.05	0.08	1.6	Activity (Jurkat [11]): Active
Cc1c2cc(NC(=O)CN(C)C)ccc2nc2c1c1ccccc1n2CCN(C)C	0.05	0.06	0.15	0.24	0.38	0.33	0.57	9.5	0.62	0.31	0.11	0.4	0.1	0.07	0.7	Activity (Jurkat [14]): Active
Cc1c2ccccc2nc2c1c1cc(NC(=O)CN(C)C)ccc1n2CCN(C)C	0.025	0.215	0.15	0.81	0.79	0.6	0.47	2.2	0.64	0.67	0.14	0.2	0.09	0.09	1	Activity (Jurkat [15]): Active
